“And” between values parts separate entries of the source, which are not always exact repeats. Equal values may be shown once. Read-outs that look alike come from different tables or passages of the source. Marks after values point to notes of the source that are not given here. Values belong to the compound of their own block, whether it stands above or below them.
Experiments:
[1] = molecular target: T1, N-acetylgalactosamine-6-sulfatase (GALNS) (Homo sapiens, UniProt P34059); test: GALNS inhibition in leukocyte homogenate from healthy donors (4-methylumbelliferyl-β-galactoside-6-sulfate substrate, fluorescence); format: biochemical; conditions: for inhibition at 1000 µM: pH 4.3, 1 mM inhibitor
T1 construct: Isolated leukocytes were disrupted by sonication; from tissue; host or cells: human leukocytes from healthy donors (sonicated homogenate)
T1 sequence (P34059 27-522): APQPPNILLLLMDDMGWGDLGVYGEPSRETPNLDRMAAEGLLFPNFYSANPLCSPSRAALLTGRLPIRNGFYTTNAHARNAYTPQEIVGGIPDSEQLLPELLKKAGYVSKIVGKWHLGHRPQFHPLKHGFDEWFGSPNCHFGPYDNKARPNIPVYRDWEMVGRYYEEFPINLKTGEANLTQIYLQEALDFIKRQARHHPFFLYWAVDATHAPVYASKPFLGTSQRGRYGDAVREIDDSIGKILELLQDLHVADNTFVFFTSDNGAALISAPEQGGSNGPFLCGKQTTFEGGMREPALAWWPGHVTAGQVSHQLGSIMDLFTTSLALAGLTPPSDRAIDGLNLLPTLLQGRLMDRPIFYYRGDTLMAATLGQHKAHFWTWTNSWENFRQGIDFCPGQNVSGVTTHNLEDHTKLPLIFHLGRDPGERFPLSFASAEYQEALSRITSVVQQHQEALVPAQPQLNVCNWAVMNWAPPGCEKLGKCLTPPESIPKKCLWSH
Experimental: A preliminary biological screening of the newly synthesized multivalent compounds at 1 mM inhibitor concentration was performed against GALNS in leukocytes isolated from healthy donors. Enzymatic assays were performed in triplicate by incubating leukocyte homogenate, compound, and substrate (4-methylumbelliferyl-β-galactoside-6-sulfate.Na) in Na-acetate/acetic acid buffer (pH 4.3) at 37 °C for 17 h, followed by the addition of β-galactosidase from Aspergillus oryzae and further incubation to release 4-methylumbelliferone. The fluorescence was measured, and the inhibition percentages were calculated relative to the control. The results are summarized in Table 1, Table 2, Table 3 and Table 4, along with new inhibition data toward GALNS of multivalent inhibitors whose synthesis was reported previously by our group (23, 26, 30, 51, 52–54). For compounds showing poor to negligible inhibitory activity, only the GALNS inhibition percentage at 1 mM was reported.
Enzymatic assays towards human GALNS in leukocytes isolated from healthy donors.
All experiments on biological materials were performed in accordance with the ethical standards of the institutional research committee and with the 1964 Helsinki Declaration and its later amendments. In keeping with ethical guidelines, all blood and cell samples were obtained for storage and analysed only after written informed consent of the patients (and/or their family members) was obtained, using a form approved by the local Ethics Committee (Assigned code: Lysolate “Late -onset Lysosomal Storage Disorders (LSDs) in the differential diagnosis of neurodegenerative diseases: development of new diagnostic procedures and focus on potential pharmacological chaperones (PCs).” Project ID code: 16774_bio, 5 May 2020, Comitato Etico Regionale per la Sperimentazione Clinica della Regione Toscana, Area Vasta Centro, Florence, Italy). Control and patient samples were anonymized and used only for research purposes.
A preliminary biological screening of compounds at 1 mM was performed towards GALNS in leukocytes isolated from healthy donors (controls). Isolated leukocytes were disrupted by sonication, and a micro BCA protein assay kit (Sigma–Aldrich) was used to determine the total protein amount for the enzymatic assay, according to the manufacturer instructions. Enzyme activity was measured by setting the reaction in 0.2 mL tubes and performing the experiments in triplicates as follows. Compound solution (3 µL), 4.29 μg/μL leukocyte homogenate 1:5 (7 μL) and 20 µL of 4-methylumbelliferyl-β-galactoside-6-sulfate.Na substrate solution (6.66mM) in Na-Acetate/acetic acid buffer (0.1 M/0.1 M, pH 4.3) containing 0.1 M NaCl, 0.02% (w/v) NaN3 and 5 mM Pb-acetate were incubated for 17 h at 37 °C. After step one, the tubes were placed on an ice cooler and the reaction was stopped by addition of 5 µL of Na-phosphate buffer (0.9 M, pH 4.3) containing 0.02 % (w/v) of NaN3 and by efficient mixing with vortex. Then, 10 µL of β-galactosidase from Aspergillus oryzae (β-Gal-A-10U) were added to each sample and samples were incubated for 2 h at 37°C. At the end of this period the tubes were placed on an ice cooler and the samples were transferred in a cooled flat –bottomed 96 well plate and the reaction was immediately stopped with 2 00 µL of NaHCO3/Na2CO3 buffer (0.5 M/0.5 M pH 10.7) containing 0.025% (w/v) of Triton X -100. Fluorescence was measured in a SpectraMax M2 microplate reader (Molecular-Devices) using a 365 nm excitation wavelength and a 435 nm emission wavelength. Percentage of GALNS inhibition was given with respect to the control (without compound).
Experiments were performed in triplicate, and the mean ± S. D. was calculated.
Figure S52. GALNS activity in the absence Figure S53. GALNS activity in the absence (Ctrl) and presence of scaffold 12 at a 1 mM (Ctrl) and presence of the new multivalent […]
The corresponding calculated inhibition of the main text) at a 1 mM concentration in […]

[2] = molecular target: T1, N-acetylgalactosamine-6-sulfatase (GALNS); parameters: method as in doi:10.1039/C6RA15806D; conditions: cited from earlier work
[3] = tested on: rhGALNS; parameters: method as in PMID 31905715; conditions: preliminary studies; cited from earlier work
[4] = 1H-NMR stability study of the acetal in D2O at pH* 4.3, 37 °C; format: physicochemical; conditions: after 19 h
Experimental: The presence of pH-sensitive acetal groups in β-D-glucose-derived dendrimers led us to question whether these compounds would remain stable under the biological conditions of the screening assay. To assess their stability under the experimental conditions, we synthesized 2-(nonyloxy)tetrahydro-2H-pyran acetal following the literature procedure as a control and conducted an NMR stability study. The NMR sample was prepared in D2O at pH* 4.3, where pH* refers to the pH measured in a D2O solution using an H2O-calibrated pH meter. […] The hydrolysis of the 2-(nonyloxy)tetrahydro-2H-pyran acetal yielded nonan-1-ol and 5-hydroxypentanal. The compound stability at pH* 4.3, assessed by ¹H-NMR experiments, is reported in the Supporting Information.

[5] = tested on: GALNS; conditions: cited from earlier work
[6] = human leukocyte extracts, pH 4.3, 37 °C, 17 h
[7] = calculated considering 35 as the monovalent reference compound

SMILES: CC(=O)OCC1OC(OCCCCCCn2cc(CO)nn2)C(OC(C)=O)C(OC(C)=O)C1OC(C)=O (centres unmarked) [Compound 48]
IC50 ([1]; human leukocyte extracts, cell prints mM under a µM head): > 1 mM
inhibition at 1000 µM [1, 6]: 16%

SMILES: O=C(Nc1cccc2c(=O)cc(-c3nnn[nH]3)oc12)c1ccc(OCCCCc2ccccc2)cc1 [pranlukast]
effect on activity and thermostability of rhGALNS [3]: increase the activity and thermostability of rhGALNS

SMILES: CCCCCCCCCOC1CCCCO1 (centres unmarked) [2-(nonyloxy)tetrahydro-2H-pyran acetal, 2-(nonyloxy)tetrahydro-2H-pyran]
stability at pH* 4.3 by 1H-NMR [4]: remained stable

SMILES: CC(C)C[C@H]1C(=O)N2CCC[C@H]2[C@]2(O)O[C@](NC(=O)[C@@H]3C=C4c5cccc6[nH]c(Br)c(c56)C[C@H]4N(C)C3)(C(C)C)C(=O)N12 [bromocriptine]
effect on activity and thermostability of rhGALNS [3]: increase the activity and thermostability of rhGALNS

SMILES: C#CCOCC(COCC#C)(COCC#C)NC(=O)c1cc(C(=O)NC(COCC#C)(COCC#C)COCC#C)cc(C(=O)NC(COCC#C)(COCC#C)COCC#C)c1 [Compound 12]
inhibition at 1000 µM [1, 6]: 25%

SMILES: OC[C@@H](C[C@H]1N[C@H](CO)[C@@H](O)[C@@H]1O)OC[C@H](O)C[C@H]1N[C@H](CO)[C@@H](O)[C@@H]1O [Compound 3]
IC50 [5]: 0.3 µM

SMILES: CCCCCCCCN1C[C@@H](O)C(O)[C@H](O)C1 [Compound 55]
% Inhibition (1 mM) ([1]; 1 mM inhibitor, human leukocyte extracts, pH 4.3, 37 °C, 17 h): 33%

SMILES: O=C1[C@H](CC[C@H](O)c2ccc(F)cc2)[C@@H](c2ccc(O)cc2)N1c1ccc(F)cc1 [ezetimibe]
effect on activity and thermostability of rhGALNS [3]: increase the activity and thermostability of rhGALNS

More lines, main results first:

inhibition at 1000 µM [1, 6]: 9%
SMILES: OCC1C(O)C(O)C2CC(n3cc(COCC(COCc4cn(C5CC6C(O)C(O)C(CO)N6C5)nn4)(COCc4cn(C5CC6C(O)C(O)C(CO)N6C5)nn4)COCc4cn(C5CC6C(O)C(O)C(CO)N6C5)nn4)nn3)CN12 (centres unmarked) [Compound 54]

inhibition at 1000 µM [1, 6]: 35%
SMILES: OC[C@@H]1[C@@H](O)[C@H](O)CN1CCCCCCn1cc(COCC(COCc2cn(CCCCCCN3C[C@@H](O)[C@H](O)[C@H]3CO)nn2)(COCc2cn(CCCCCCN3C[C@@H](O)[C@H](O)[C@H]3CO)nn2)COCc2cn(CCCCCCN3C[C@@H](O)[C@H](O)[C@H]3CO)nn2)nn1 [Compound 30]

rp (relative potency) [1, 7]: 59
rp/n (multivalent effect) [1, 7]: 6.5 ^[d]
rp (relative potency) ([1]; calculated with respect to the scaffold 38): 0.8
SMILES: O=C(NC(COCc1cn(CCCCCCN2C[C@H](O)[C@H](O)[C@H]2CO)nn1)(COCc1cn(CCCCCCN2C[C@H](O)[C@H](O)[C@H]2CO)nn1)COCc1cn(CCCCCCN2C[C@H](O)[C@H](O)[C@H]2CO)nn1)c1cc(C(=O)NC(COCc2cn(CCCCCCN3C[C@H](O)[C@H](O)[C@H]3CO)nn2)(COCc2cn(CCCCCCN3C[C@H](O)[C@H](O)[C@H]3CO)nn2)COCc2cn(CCCCCCN3C[C@H](O)[C@H](O)[C@H]3CO)nn2)cc(C(=O)NC(COCc2cn(CCCCCCN3C[C@H](O)[C@H](O)[C@H]3CO)nn2)(COCc2cn(CCCCCCN3C[C@H](O)[C@H](O)[C@H]3CO)nn2)COCc2cn(CCCCCCN3C[C@H](O)[C@H](O)[C@H]3CO)nn2)c1 [Compound 2]
% Inhibition (1 mM) ([2]; 1 mM inhibitor, human leukocyte extracts): 85 ^[a] %
IC50 ([2]; human leukocyte extracts): 85 ± 8 µM
rp/n ([2]; positive MVE as previously reported): 6.5 and 6.5–9.2

inhibition at 1000 µM [1, 6]: 73%
SMILES: OCC1C(O)C(O)CN1CCCCCCn1cc(COCC(COCc2cn(CCCCCCN3CC(O)C(O)C3CO)nn2)(COCc2cn(CCCCCCN3CC(O)C(O)C3CO)nn2)COCc2cn(CCCCCCN3CC(O)C(O)C3CO)nn2)nn1 (centres unmarked) [Compound 31]

IC50 ([1]; human leukocyte extracts): 0.07 ± 0.015 mM
SMILES: O=C(NC(COCc1cn(CCCCCCN2CCCC2)nn1)(COCc1cn(CCCCCCN2CCCC2)nn1)COCc1cn(CCCCCCN2CCCC2)nn1)c1cc(C(=O)NC(COCc2cn(CCCCCCN3CCCC3)nn2)(COCc2cn(CCCCCCN3CCCC3)nn2)COCc2cn(CCCCCCN3CCCC3)nn2)cc(C(=O)NC(COCc2cn(CCCCCCN3CCCC3)nn2)(COCc2cn(CCCCCCN3CCCC3)nn2)COCc2cn(CCCCCCN3CCCC3)nn2)c1 [Compound 38]

inhibition at 1000 µM [1, 6]: 49%
SMILES: O=C(NC(COCc1cn(CCN2C[C@@H](O)[C@H](O)[C@H]2CO)nn1)(COCc1cn(CCN2C[C@@H](O)[C@H](O)[C@H]2CO)nn1)COCc1cn(CCN2C[C@@H](O)[C@H](O)[C@H]2CO)nn1)c1ccc([N+](=O)[O-])cc1 [Compound 51]

inhibition at 1000 µM [1, 6]: < 75%
SMILES: NC(COCc1cn(CCCCCCN2C[C@@H](O)[C@H](O)[C@H]2CO)nn1)(COCc1cn(CCCCCCN2C[C@@H](O)[C@H](O)[C@H]2CO)nn1)COCc1cn(CCCCCCN2C[C@@H](O)[C@H](O)[C@H]2CO)nn1 [Compound 26]

rp/n (multivalent effect) [1, 7]: 2.4
SMILES: O=C(CCCCC(=O)NC(COCc1cn(CCCCCCN2CC(O)C(O)C2CO)nn1)(COCc1cn(CCCCCCN2CC(O)C(O)C2CO)nn1)COCc1cn(CCCCCCN2CC(O)C(O)C2CO)nn1)NC(COCc1cn(CCCCCCN2CC(O)C(O)C2CO)nn1)(COCc1cn(CCCCCCN2CC(O)C(O)C2CO)nn1)COCc1cn(CCCCCCN2CC(O)C(O)C2CO)nn1 (centres unmarked) [Compound 33]

inhibition at 1000 µM [1, 6]: < 75%
SMILES: OC[C@@H]1[C@@H](O)[C@H](O)CN1CCCCCCn1cc(COCC(COCc2cn(CCCCCCN3C[C@@H](O)[C@H](O)[C@H]3CO)nn2)OCc2cn(CCCCCCN3C[C@@H](O)[C@H](O)[C@H]3CO)nn2)nn1 [Compound 28]

From paper PMC12113998, “Exploring Multivalent Architectures for Binding and Stabilization of N-Acetylgalactosamine 6-Sulfatase” (Molecules, 2025)
